# Experimental data reported in US12521435B2, “Photodynamic therapy composition” (CASE WESTERN RESERVE UNIVERSITY, priority 2020, dated 2026).
# How the values were obtained:
# [1] = tested on: PC3pip cells; experiment: In vitro PDT, CCK8 assay; format: cell-based; conditions: E64 added to block the cleavage
# Experimental: In vitro PDT was evaluated by CCK8 assay. PC3pip and PC3flu cells were seeded in 96-well plates at 1×10^4 cells/well. […] The 96-well plate was irradiated (Appolo Horizon projector, Acco Brands) with radiant exposure at 1 J/cm^2, after which the cells were incubated overnight. After incubation, CCK8 agent (DojinDo Laboratories) was added to each well (10 μL/well) and incubated for 3 h at 37° C., and absorbance at 450 nm was measured for each well.
# [2] = tested on: PC3pip tumors; experiment: Multiple sequential PDT of tumors around 500 mm^3; format: in vivo, athymic nude mice; conditions: E64 intratumorally injected after bleaching; following 48 h (Day 2 and Day 3)
# Experimental: Tumor size and mouse body weight was monitored every other day for a 30 day period. […] PDT was performed at 24 h, 2 days, and 3 days post-injection. Fluorescence before and after each PDT was monitored with Maestro, and intensity was quantified. One group of mice that received AuNPs-Pc158 were intratumorally injected with cathepsin inhibitor E64 after the first PDT exposure. After PDT, tumor size and mice body weight were monitored over 24 days.
# [3] = tested on: PSMA-positive PC3pip cells; experiment: In vitro targeting and intracellular Pc158 release (confocal microscopy); format: cell-based; conditions: E64 added prior to coincubation with AuNPs
# Experimental: Retrovirally transformed PSMA-positive PC3pip cells and transfection control PSMA-negative PC3flu cells were incubated for specific uptake and intracellular release studies. Both PC3pip and PC3flu cells were cultured in RPMI1640 medium (Invitrogen Life Technology) with 2 mmol/L L-glutamine, 10% FBS at 37° C., and 5% CO2. PC3pip and PC3flu cells were seeded in μ-Slide 8-Well Chamber Slide (ibidi) at 2000 cells/well. When the cells grew to 70% confluence, AuNPs-Pc158 conjugations were added at a Pc158 concentration of 1 μmol/L and coincubated for 1 h, 6 h, and 24 h. Then the cells were washed with PBS and stained with DAPI, LysoOrange, and MitoGreen (all from abcam) for 30 min at 37° C. and 5% CO2, after which they were washed again with PBS and replete medium added. The release of Pc158 and localization of nuclei, lysosomes, and mitochondria was observed under a Leica HyVolution SP8 confocal microscope (Leica Microsystem Inc.).
# [4] = tested on: PC3pip tumors; experiment: In vivo tumor targeting and intratumor Pc158 release (Maestro fluorescence imaging); set-up: species or system athymic nude mice; conditions: E64 intratumorally injected before AuNPs-Pc158 administration
# Experimental: All animal procedures were performed according to Institutional Animal Care and Use Committee (JACUA)-approved protocols (2015-0033). Four- to five-week-old male athymic nude mice were subcutaneously implanted with PC3pip or PC3flu cells (100 μL, cells suspended in PBS/matrigel at 1×10^7 cells/mL) on the right and left flanks, respectively. When the tumors grew to a sufficient size, AuNPs-Pc158 conjugations were intravenously injected via the tail vein with a Pc158 dose of 0.1 mg/kg. The mice were preimaged before, and at 0.5 h, 1 h, 4 h, 8 h, 24 h, 48 h, 72 h, 96 h, and 120 h after NPs injection using the Maestro In vivo Imaging System (PerkinElmer) to monitor the delivery and release of Pc158. Multispectral images were unmixed into their component spectra (Pc158 autofluorescence and background). Component images were used to quantitatively determine the average Pc158 fluorescence intensity of the PC3pip and PC3flu tumors. Tumor tissues at 24 h postinjection were also collected, cut, and imaged to see the Pc158 distribution (details in the histology analysis section).
structure (smiles),measurement,setting,value
CC(C)C[C@H](NC(=O)[C@H]1O[C@@H]1C(=O)O)C(=O)NCCCCN=C(N)N [E64],release of free Pc158 and PDT with AuNPs-Pc158,[1],significantly hindered
same,Pc158 fluorescence in the tumor after first PDT,[2],fluorescence inhibition
same,process of free Pc158 generation from AuNPs-Pc158 in cells,[3],could be blocked
same,Pc158 fluorescence in PC3pip tumors,[4],no Pc158 fluorescence was measurable
